This is an account of results in PMC7417534, “Cytochrome P450 inhibition potential and initial genotoxic evaluation of 14-O-[(4,6-diaminopyrimidine-2-yl)thioacetyl] mutilin” (Scientific Reports, 2020).

One series has as its target T1, CYP1A2 (Rattus norvegicus, UniProt P04799).
T1 construct: containing 100 μL RLMs or HLMs; tissue Research Institute for Liver Diseases (Shanghai) Co., Ltd; host or cells: male SD rat liver microsomes
Description: Cocktail CYP inhibition in rat liver microsomes, CYP1A2 (phenacetin). Conditions: cocktail method, read-out: IC50 values, CYP1A2 in RLMs. In kind it is in vitro ADME. How it is done:
(§1) We used the cocktail method to study the inhibition activities of DPTM against CYP enzymes in RLMs and HLMs with slight modification. DPTM (250 μmol) was dissolved in 1.25 mL methanol to a solution and then diluted with methanol and water to 2, 10, 20, 100, 200, 400, 1,000 and 2000 μM, respectively. The obtained serial dilutions (10 μL) were added to the incubation mixtures (200 μL total volume), containing 100 μL RLMs or HLMs (final concentration was 5 μg/μL, respectively), 10 μL glucose-6-phosphate (final concentration was 1 mM), 10 μL glucose-6-phosphate dehydrogenase (final concentration was 0.1 U/L), 20 μL potassium phosphate buffer (final concentration was 0.01 M) and 20 μL MgCl2 (final concentration was 2 mM), to give the final concentrations were 0.1, 0.5, 1, 5 10, 20, 50, and 100 μM, respectively. For the groups that in the absence of DPTM, 10 μL methanol (1%) replaced the DPTM and was added to the incubation mixtures. […] The final concentration of methanol in all the incubation mixtures, including the blank group, was […]. […] The determined metabolic substrates were used for calculating the relative enzyme activity (Erel) by the following formula: Erel (%) = Ci(n)/Ci(0) × 100%, in which Ci(n) was the determined metabolic substrates in the presence of varying concentrations of DPTM and Ci(0) was the determined metabolic substrates in the absence of DPTM. […]
On the technique in general: Liver microsomes are vesicles of endoplasmic reticulum, rich in cytochrome P450 enzymes.

In another series the test system is S. typhimurium TA1535. Conditions: − S9. The text has this:
(§2) S. typhimurium strains TA97, TA98, TA100, TA102 and TA1535 were stored and maintained as provided in the standard protocol. Each of the strains was checked for their genetic integrity prior to the experiment, and tested for biotin dependence, histidine dependence, biotin and histidine dependence, rfa marker (crystal violet) and presence of the plasmid pKM101 (ampicillin resistance) or pAQ1 (tetracycline resistance). Different strains were used to identify different types of mutations.
(§3) The test was carried out at five different concentrations of DPTM. […] Then 1 mL solution was diluted with distilled water by two fold. […] The negative control used in this experiment was 1 mL DMSO which was directly incorporated into 9 mL melted top agar.
(§4) The Ames test of DPTM was conducted as described in the literatures[42],[43] with some modifications. Briefly, 1 mL of strain was inoculated into 5 mL of nutrient broth, followed by incubating overnight at 37 °C. The mixture comprised respective strains, drug, negative and positive controls with the S9 for testing in the presence of metabolic activation system. For testing without S9, 1 × phosphate buffer saline (PBS, pH 7.4) replaced the S9 mix. The obtained mixtures were added into the tube, mixed well and incubated at 37 °C for 20 min. Then, the top agar was melted and 2 mL of this melted top agar was added to each tube and gently mixed. […] The results were expressed as the number of revertant colonies per plate. The experiments were performed in triplicate.

Another series deals with S. typhimurium TA100. Conditions: − S9.
From the text: as §2, §3, §4

A further series deals with AhR mRNA. The series can be described thus: AhR mRNA expression in Hep G2 cells (real-time PCR). In kind it is cell-based, human. How it is done: (§5) The logarithmic growth phase Hep G2 cells were seeded into 12-well plastic plates at a density of […]. After incubation at 37 °C under 5% CO2 for 24 h, the media were then replaced with 1 mL of serial dilutions of the DPTM (4.98, 0.16 and 0.08 mM) in fresh media. When cells were incubated for 2, 4 and 12 h at 37 °C under 5% CO2, the RNA was isolated using the Trizol reagent according to the manufacturer’s protocol. Total RNA (5 μL) was transcribed into cDNA by using the PrimeScript RT reagent Kit (Perfect Real Time). The obtained cDNA (5 μL) was added for 45 cycles of PCR amplification to detect the mRNA expression (the primers and sequences used herein were given in Table 3) using the ABI Villa TM7Dx real-time PCR system (Gaithersburg, USA). Glyceraldehyde-3-phosphate dehydrogenase (GAPDH) was used as reference gene. All reactions were performed in a final volume of 20 μL (10 μL of 2 × SYBR Green Real-time PCR Master Mix, 2 μL of cDNA and 2 μL of the primers and 6 μL DEPC water) and executed in triplicate.
(In general: Quantitative PCR measures a nucleic acid by following its amplification.)

In the next series the test system is CYP2E1 mRNA. Description: CYP2E1 mRNA expression in Hep G2 cells (real-time PCR). In kind it is cell-based, human. The method, then:
as §5

Another series deals with T2, CYP2D6 (Homo sapiens, UniProt P10635).
T2 construct: containing 100 μL RLMs or HLMs; tissue Research Institute for Liver Diseases (Shanghai) Co., Ltd; host or cells: pooled human liver microsomes
T2 sequence (P10635 whole entry): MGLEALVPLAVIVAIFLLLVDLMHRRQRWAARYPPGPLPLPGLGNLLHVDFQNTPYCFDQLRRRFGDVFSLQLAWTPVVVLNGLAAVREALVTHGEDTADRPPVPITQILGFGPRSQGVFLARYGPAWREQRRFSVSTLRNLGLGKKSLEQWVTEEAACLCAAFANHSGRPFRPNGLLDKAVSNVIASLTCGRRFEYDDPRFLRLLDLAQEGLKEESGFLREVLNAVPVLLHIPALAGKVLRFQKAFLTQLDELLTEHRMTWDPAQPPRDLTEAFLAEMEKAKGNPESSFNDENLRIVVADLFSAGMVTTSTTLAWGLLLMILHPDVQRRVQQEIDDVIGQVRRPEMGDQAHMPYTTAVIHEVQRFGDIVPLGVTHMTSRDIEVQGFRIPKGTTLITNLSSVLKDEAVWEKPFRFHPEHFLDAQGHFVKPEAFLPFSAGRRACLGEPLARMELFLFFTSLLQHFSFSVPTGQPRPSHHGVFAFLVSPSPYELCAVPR
Description: Cocktail CYP inhibition in human liver microsomes, CYP2D6 (metoprolol). Conditions: cocktail method, read-out: IC50 values, CYP2D6 in HLMs. The series is classed as in vitro ADME. The method, then: as §1

A further series addresses T3, CYP2E1 (Homo sapiens, UniProt P05181).
T3 construct: containing 100 μL RLMs or HLMs; tissue Research Institute for Liver Diseases (Shanghai) Co., Ltd; host or cells: pooled human liver microsomes
Description: Cocktail CYP inhibition in human liver microsomes, CYP2E1 (chlorzoxazone). In kind it is in vitro ADME. Conditions: cocktail method, read-out: IC50 values, CYP2E1 in HLMs. The method, then: as §1

The subject of a further series is CYP2C9 mRNA. The series can be described thus: CYP2C9 mRNA expression in Hep G2 cells (real-time PCR). In kind it is cell-based, human. Conditions: 2 and 4 h, 4.98, 0.16 and 0.08 mM. The method, then:
as §5

The test system of another series is PPARα mRNA. The series can be described thus: PPARα mRNA expression in Hep G2 cells (real-time PCR). In kind it is cell-based, human. Conditions: 2, 4 and 12 h, three doses. How it is done:
as §5

The test system of the next series is CYP2D6 mRNA. The series can be described thus: CYP2D6 mRNA expression in Hep G2 cells (real-time PCR). In kind it is cell-based, human. Conditions: 12 h. How it is done:
as §5

The next series has as its target T4, CYP2C11 (Rattus norvegicus, UniProt P08683).
T4 construct: containing 100 μL RLMs or HLMs; tissue Research Institute for Liver Diseases (Shanghai) Co., Ltd; host or cells: male SD rat liver microsomes
The series can be described thus: Cocktail CYP inhibition in rat liver microsomes, CYP2C11 (tolbutamide). In kind it is in vitro ADME. Conditions: cocktail method, read-out: IC50 values, CYP2C11 in RLMs. The method, then:
as §1

The structures appear in SMILES notation. Where two headings read alike, the source gives them in different places. Bounds are passed on as bounds.

T1 sequence (P04799 whole entry): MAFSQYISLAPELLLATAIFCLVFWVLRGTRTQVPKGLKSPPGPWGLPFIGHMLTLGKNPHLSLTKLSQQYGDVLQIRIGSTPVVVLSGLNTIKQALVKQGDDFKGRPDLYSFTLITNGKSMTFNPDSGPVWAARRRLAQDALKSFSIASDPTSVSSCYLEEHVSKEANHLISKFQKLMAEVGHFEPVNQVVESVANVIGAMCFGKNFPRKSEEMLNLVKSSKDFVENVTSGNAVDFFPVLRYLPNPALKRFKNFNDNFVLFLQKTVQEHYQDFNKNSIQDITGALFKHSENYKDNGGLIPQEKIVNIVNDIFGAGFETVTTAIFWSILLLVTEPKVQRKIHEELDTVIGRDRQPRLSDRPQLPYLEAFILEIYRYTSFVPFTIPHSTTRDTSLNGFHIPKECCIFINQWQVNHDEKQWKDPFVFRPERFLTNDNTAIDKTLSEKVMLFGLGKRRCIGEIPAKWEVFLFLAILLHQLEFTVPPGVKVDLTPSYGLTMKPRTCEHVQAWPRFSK
T3 sequence (P05181 whole entry): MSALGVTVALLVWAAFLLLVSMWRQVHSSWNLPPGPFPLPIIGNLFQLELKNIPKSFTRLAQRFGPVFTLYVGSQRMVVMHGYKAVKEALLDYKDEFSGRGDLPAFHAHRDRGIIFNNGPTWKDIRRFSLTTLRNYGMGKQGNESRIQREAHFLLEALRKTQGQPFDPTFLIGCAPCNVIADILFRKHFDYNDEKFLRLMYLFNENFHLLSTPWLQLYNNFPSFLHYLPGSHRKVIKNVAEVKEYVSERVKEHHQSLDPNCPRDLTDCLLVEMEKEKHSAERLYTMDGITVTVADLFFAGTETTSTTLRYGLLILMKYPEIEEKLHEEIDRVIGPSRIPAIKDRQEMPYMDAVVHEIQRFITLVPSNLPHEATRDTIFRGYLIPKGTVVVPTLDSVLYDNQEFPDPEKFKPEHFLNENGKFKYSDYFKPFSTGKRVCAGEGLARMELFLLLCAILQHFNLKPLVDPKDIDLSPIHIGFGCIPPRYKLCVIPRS
T4 sequence (P08683 whole entry): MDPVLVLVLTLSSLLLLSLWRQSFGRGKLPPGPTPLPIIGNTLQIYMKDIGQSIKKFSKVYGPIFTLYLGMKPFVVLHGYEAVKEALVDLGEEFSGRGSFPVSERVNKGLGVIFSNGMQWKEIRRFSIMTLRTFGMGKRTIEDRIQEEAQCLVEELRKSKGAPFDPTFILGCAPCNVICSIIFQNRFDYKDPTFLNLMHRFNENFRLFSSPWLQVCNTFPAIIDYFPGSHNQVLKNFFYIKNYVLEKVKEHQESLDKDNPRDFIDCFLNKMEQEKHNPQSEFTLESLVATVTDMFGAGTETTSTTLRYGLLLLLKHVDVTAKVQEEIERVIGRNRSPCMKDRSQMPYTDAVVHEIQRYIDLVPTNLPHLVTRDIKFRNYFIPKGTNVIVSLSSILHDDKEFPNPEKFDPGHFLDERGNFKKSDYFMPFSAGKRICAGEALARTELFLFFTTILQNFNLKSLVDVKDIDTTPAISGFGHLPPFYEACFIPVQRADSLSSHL

As to `C=CC1(C)CC(OC(=O)CSc2nc(N)cc(N)n2)C2(C)C(C)CCC3(CCC(=O)C32)C(C)C1O` (stereo not drawn) [DPTM, 14-O-[(4,6-Diaminopyrimidine-2-yl)thioacetyl] mutilin], the IC50 at CYP1A2 was above 100 µM; at CYP2D6, above 100 µM; on CYP2E1, 67 ± 6 µM; at CYP2C11 it was above 100 µM. The “revertant colonies per plate, TA1535” value in the series with S. typhimurium TA1535 (dose 0.25 μmol/plate) was 22 ± 3 CFU; in the series on S. typhimurium TA1535 (dose 0.50 μmol/plate), 21 ± 5 CFU; in the series with S. typhimurium TA1535 (dose 1.00 μmol/plate), 26 ± 1 CFU; in the series with S. typhimurium TA1535 (dose 1.99 μmol/plate) it was 22 ± 3 CFU; in the series with S. typhimurium TA1535 (dose 3.98 μmol/plate), 22 ± 4 CFU. In addition, the “revertant colonies per plate, TA100” value was 171 ± 15 CFU in the series with S. typhimurium TA100 (dose 0.25 μmol/plate); 162 ± 13 CFU in the series with S. typhimurium TA100 (dose 0.50 μmol/plate); 165 ± 14 CFU in the series on S. typhimurium TA100 (dose 1.00 μmol/plate); 170 ± 12 CFU in the series on S. typhimurium TA100 (dose 1.99 μmol/plate); 173 ± 15 CFU in the series with S. typhimurium TA100 (dose 3.98 μmol/plate). Also, the “AhR mRNA content versus control” value in the series with AhR mRNA (2 and 4 h, 4.98, 0.16 and 0.08 mM) is “significantly increased”; in the series with AhR mRNA (12 h) it was “no effect”. The “CYP2E1 mRNA level versus control” value in the series on CYP2E1 mRNA (4 h, three doses) is on record as “no significantly difference”. Besides, the “CYP2E1 mRNA expression versus control” value with CYP2E1 mRNA (12 h) was “significantly lowered”. Also, in the series on CYP2C9 mRNA, the “CYP2C9 mRNA expression versus control” value is listed as “significantly increase”. Also, the “PPARα mRNA expression versus control” value in the series on PPARα mRNA is “significantly increase”. Also, in the series with CYP2D6 mRNA, the “CYP2D6 mRNA expression versus control” value was “significantly lowered”.

In general, IC50 refers to the concentration at which inhibition is half-maximal.
